Laboratory results from publication PMC6514978, “Synthesis, Antibacterial Activities, Mode of Action and Acute Toxicity Studies of New Oxazolidinone-Fluoroquinolone Hybrids” (Molecules, 2019).
≈ marks a conversion by molar mass, not a printed value.

Key:
MRSA (13B262) = assay: MIC, broth microdilution (CLSI), clinical isolate; type: cell-based; settings: Staphylococcus aureus
Source text: (§1) 6 standard strains and 3 clinical isolates were used to the preliminary evaluation of in vitro antibacterial activities of oxazolidinone-fluoroquinolone hybrids. For the further evaluation of hybrids OBP-4 and OBP-5, 263 clinical isolates including S. aureus (46), S. haemolyticus(32), S. epidermidis (10), E. faecalis (72), E. faecium (47), S. pneumoniae (13), H. parasuis (34), S. suis (9), and 8 resistant strains including MRSA, MRSE, CIP-resistant S. aureus and S. haemolyticus, VAN and quinolone-resistant S. pneumoniae, LZD-resistant E. faecalis, LZD/VAN and quinolone-resistant E. faecium were collected and tested.
(§2) Susceptibility testing of oxazolidinone-fluoroquinolone hybrids against various bacteria was performed by the broth microdilution method as outlined by the Clinical and Laboratory Standards Institute (CLSI). Three types of media, including cation-adjusted Mueller Hinton broth, Haemophilus Test Medium and cation-adjusted Mueller Hinton broth that contained 3%–5% lysed horse blood, were used to culture the corresponding bacteria. All compounds including comparator drugs were dissolved in an appropriate solvent at a concentration of 2.048 mg/mL and then serially diluted two-fold to provide the required concentrations. A final inoculum of 5 × 10^5 CFU/mL was used and plates were read after incubation for 16–24 h at 35 °C. […] Standard quality control strains (ATCC) were included throughout. Each determination was repeated in triplicate.

[1] = system: S. agalactiae^R (13B317), levofloxacin-resistant S. agalactiae; assay: MIC, broth microdilution (CLSI), clinical isolate; type: cell-based; settings: Streptococcus agalactiae; levofloxacin-resistant S. agalactiae (13B317)
Source text: as §1, §2

[2] = system: S. pneumoniae (13) clinical isolates; assay: Susceptibility of clinical isolates (MIC); type: cell-based, Streptococcus pneumoniae; settings: for Cumulative % of strains inhibited at MIC / No. of strains inhibited at MIC: S. pneumoniae (13); for MIC Range / MIC50 / MIC90: S. pneumoniae, 13 clinical isolates; for MIC50 / MIC90: Streptococcus pneumoniae; for MIC50: read-out: MIC50; for MIC90: read-out: MIC90
Method: as §2, with “All compounds including comparator drugs were dissolved in an appropriate solvent at a concentration of 2.048 mg/mL and then serially diluted two-fold to provide the required concentrations.” left out

[3] = system: E. faecium (47) clinical isolates; assay: Susceptibility of clinical isolates (MIC); type: cell-based, Enterococcus faecium; settings: for Cumulative % of strains inhibited at MIC / No. of strains inhibited at MIC: E. faecium (47); for MIC Range / MIC50 / MIC90: E. faecium, 47 clinical isolates; for MIC50 / MIC90: Enterococcus faecium; for MIC50: read-out: MIC50; for MIC90: read-out: MIC90
Method: as §2, with “All compounds including comparator drugs were dissolved in an appropriate solvent at a concentration of 2.048 mg/mL and then serially diluted two-fold to provide the required concentrations.” left out

MRSE = assay: MIC against drug-resistant strain; type: cell-based, S. epidermidis; settings: Staphylococcus epidermidis, read-out: MIC
Method: (§3) 6 standard strains and 3 clinical isolates were used to the preliminary evaluation of in vitro antibacterial activities of oxazolidinone-fluoroquinolone hybrids.
as §2, with “All compounds including comparator drugs were dissolved in an appropriate solvent at a concentration of 2.048 mg/mL and then serially diluted two-fold to provide the required concentrations.” left out

[4] = system: LZD-resistant E. faecalis; assay: microbe, parasite or virus in culture; type: cell-based; settings: Enterococcus faecalis
Method: as §3
as §2, with “All compounds including comparator drugs were dissolved in an appropriate solvent at a concentration of 2.048 mg/mL and then serially diluted two-fold to provide the required concentrations.” left out

CIP-resistant S. aureus = assay: MIC against drug-resistant strain; type: cell-based; settings: Staphylococcus aureus; S. aureus, CIP-resistant; read-out: MIC
Method: as §3
as §2, with “All compounds including comparator drugs were dissolved in an appropriate solvent at a concentration of 2.048 mg/mL and then serially diluted two-fold to provide the required concentrations.” left out

[5] = system: CIP-resistant S. haemolyticus; assay: MIC against drug-resistant strain; type: cell-based; settings: Staphylococcus haemolyticus; S. haemolyticus, CIP-resistant; read-out: MIC
Method: as §3
as §2, with “All compounds including comparator drugs were dissolved in an appropriate solvent at a concentration of 2.048 mg/mL and then serially diluted two-fold to provide the required concentrations.” left out

[6] = system: LZD and quinolone-resistant E. faecium; assay: MIC against drug-resistant strain; type: cell-based; settings: Enterococcus faecium; E. faecium, LZD and quinolone-resistant; read-out: MIC
Method: as §3
as §2, with “All compounds including comparator drugs were dissolved in an appropriate solvent at a concentration of 2.048 mg/mL and then serially diluted two-fold to provide the required concentrations.” left out

MRSA = assay: MIC against drug-resistant strain; type: cell-based; settings: Staphylococcus aureus, read-out: MIC
Method: as §3
as §2, with “All compounds including comparator drugs were dissolved in an appropriate solvent at a concentration of 2.048 mg/mL and then serially diluted two-fold to provide the required concentrations.” left out

[7] = system: VAN and quinolone-resistant E. faecium; assay: MIC against drug-resistant strain; type: cell-based; settings: Enterococcus faecium; E. faecium, VAN and quinolone-resistant; read-out: MIC
Method: as §3
as §2, with “All compounds including comparator drugs were dissolved in an appropriate solvent at a concentration of 2.048 mg/mL and then serially diluted two-fold to provide the required concentrations.” left out

[8] = system: VAN and quinolone-resistant S. pneumoniae; assay: MIC against drug-resistant strain; type: cell-based; settings: Streptococcus pneumoniae; S. pneumoniae, VAN and quinolone-resistant; read-out: MIC
Method: as §3
as §2, with “All compounds including comparator drugs were dissolved in an appropriate solvent at a concentration of 2.048 mg/mL and then serially diluted two-fold to provide the required concentrations.” left out

E. coli DNA gyrase = biological target: T1, E. coli DNA gyrase (Escherichia coli, UniProt P0AES4+P0AES6); assay: DNA gyrase supercoiling assay; type: biochemical; settings: supercoiling of relaxed pBR322, 37 °C, 30 min
T1 construct: purchased Inspiralis Co., Ltd; host or cells: E. coli
Method: The E. coli DNA Gyrase Supercoiling Assay Kit (Inspiralis Co., Ltd.) was used to investigate the inhibition activities of hybrids OBP-4 and OBP-5 against DNA gyrase. DNA gyrase is prepared from E. coli. One unit of DNA gyrase can convert 0.5 μg of relaxed pBR322 to the supercoiled forms in 30 min. […] The reaction was terminated by adding 30 μL of STEB and 30 μL of chloroform/isoamyl alcohol (v:v, 24:1), and then the products were resolved by gel electrophoresis on 1% (w/v) agarose gel at 80 V for 2 h in the absence of ethidium bromide. The gels were stained with ethidium bromide (1 μg/mL in distilled water) for 15 min, and destained (5–10 min) in distilled water. DNA bands were visualized with UV light in Bio-Rad® Chemidoc xrs and analyzed by using Quantity One software (Version 4.6, Bio-Rad).

[9] = E. faecium clinical isolates, CLSI criteria

T1 sequence (P0AES4 whole entry, one chain of several): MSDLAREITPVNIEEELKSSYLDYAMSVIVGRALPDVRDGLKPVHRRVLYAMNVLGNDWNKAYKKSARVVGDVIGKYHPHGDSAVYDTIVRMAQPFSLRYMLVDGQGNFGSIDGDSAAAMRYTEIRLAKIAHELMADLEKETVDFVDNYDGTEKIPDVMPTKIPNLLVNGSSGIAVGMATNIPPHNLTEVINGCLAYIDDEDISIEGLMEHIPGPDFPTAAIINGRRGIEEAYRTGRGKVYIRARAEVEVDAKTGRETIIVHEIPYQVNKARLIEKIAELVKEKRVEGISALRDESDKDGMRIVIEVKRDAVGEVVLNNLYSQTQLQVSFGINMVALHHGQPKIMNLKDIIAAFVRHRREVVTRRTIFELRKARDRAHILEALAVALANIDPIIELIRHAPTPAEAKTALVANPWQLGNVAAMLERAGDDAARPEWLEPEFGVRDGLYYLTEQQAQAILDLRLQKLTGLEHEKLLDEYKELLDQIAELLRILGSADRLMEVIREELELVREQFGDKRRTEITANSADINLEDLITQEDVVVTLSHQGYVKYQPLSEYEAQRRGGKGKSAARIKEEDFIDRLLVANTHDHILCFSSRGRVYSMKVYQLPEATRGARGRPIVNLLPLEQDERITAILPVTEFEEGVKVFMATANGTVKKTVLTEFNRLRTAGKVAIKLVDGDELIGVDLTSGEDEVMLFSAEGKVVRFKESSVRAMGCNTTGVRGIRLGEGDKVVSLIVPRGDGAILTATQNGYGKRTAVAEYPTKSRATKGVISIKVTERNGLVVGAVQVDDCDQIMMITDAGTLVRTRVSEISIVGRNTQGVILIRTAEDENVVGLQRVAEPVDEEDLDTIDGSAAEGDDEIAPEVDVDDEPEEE

`CC1Sc2c(C(=O)O)c(=O)c3cc(F)c(N4CCC(O)(COc5ccc(N6C[C@H](CO)OC6=O)cc5F)CC4)cc3n21` (stereo partly drawn) [OBP-5] was tested, and the MIC (MRSA (13B262)) was 0.5 µg/mL (≈ 0.828 µM), the MIC [1] was 0.031 µg/mL (≈ 0.0514 µM) and the “Cumulative % of strains inhibited at MIC” value ([2]; MIC 0.125 µg/mL) was 84.6%. The “No. of strains inhibited at MIC” value ([2]; MIC 0.125 µg/mL) was 4, the “Cumulative % of strains inhibited at MIC” value ([2]; MIC […]) was 100.0% and the “No. of strains inhibited at MIC” value ([2]; MIC […]) was 2. For the same compound, the “Cumulative % of strains inhibited at MIC” value ([2]; MIC ≤[…]) was 53.8%, the “No. of strains inhibited at MIC” value ([2]; MIC ≤[…]) was 7 and the “MIC Range” value [2] was at most 0.0625 to 0.25 µg/mL. For the same compound, the MIC50 [2] was at most 0.0625 µg/mL, the MIC90 [2] was 0.25 µg/mL (≈ 0.414 µM) and the “Cumulative % of strains inhibited at MIC” value ([3]; MIC 0.125 µg/mL) was 21.3%. The “No. of strains inhibited at MIC” value ([3]; MIC 0.125 µg/mL) was 7, the “Cumulative % of strains inhibited at MIC” value ([3]; MIC 0.5 µg/mL) was 97.9% and the “No. of strains inhibited at MIC” value ([3]; MIC 0.5 µg/mL) was 3. The “Cumulative % of strains inhibited at MIC” value ([3]; MIC 1 µg/mL) was 100.0%, the “No. of strains inhibited at MIC” value ([3]; MIC 1 µg/mL) was 1 and the “Cumulative % of strains inhibited at MIC” value ([3]; MIC […]) was 91.5%. For the same compound, the “No. of strains inhibited at MIC” value ([3]; MIC […]) was 33, the “Cumulative % of strains inhibited at MIC” value ([3]; MIC ≤[…]) was 6.4% and the “No. of strains inhibited at MIC” value ([3]; MIC ≤[…]) was 3. For the same compound, the “fold higher activity than comparator agents” value ([3]; E. faecium clinical isolates) was 16- to 128 fold, the “MIC Range” value [3] was at most 0.0625 to 1 µg/mL and the MIC50 [3] was 0.25 µg/mL (≈ 0.414 µM). The MIC90 [3] was 0.25 µg/mL (≈ 0.414 µM), the MIC (MRSE) was at most 0.0625 µg/mL and the MIC [4] was 0.25 µg/mL (≈ 0.414 µM). It also gave an MIC (CIP-resistant S. aureus) of at most 0.0625 µg/mL, an MIC [5] of at most 0.0625 µg/mL and an MIC [6] of 0.125 µg/mL (≈ 0.207 µM). The MIC (MRSA) was 0.125 µg/mL (≈ 0.207 µM), the MIC [7] was 0.25 µg/mL (≈ 0.414 µM) and the MIC [8] was at most 0.0625 µg/mL. It also gave an IC50 (E. coli DNA gyrase) of 20 µM.
In the case of `CC(=O)NC[C@H]1CN(c2ccc(N3CCOCC3)c(F)c2)C(=O)O1` [LZD, linezolid, reference compound], the MIC (MRSA (13B262)) is reported as 4 µg/mL (≈ 11.9 µM), the MIC [1] is reported as 1 µg/mL (≈ 2.96 µM) and the “CLSI %S (susceptible)” value ([2]; S. pneumoniae clinical isolates, CLSI criteria) is reported as 76.9/- %. For the same compound, the “MIC Range” value [2] was 0.5 to 4 µg/mL, the MIC50 [2] was 0.5 µg/mL (≈ 1.48 µM) and the MIC90 [2] was 0.5 µg/mL (≈ 1.48 µM). For the same compound, the “CLSI %R (resistant)” value [3, 9] was 13.8%, the “CLSI %S (susceptible)” value [3, 9] was 82.8% and the “MIC Range” value [3] was 0.5 to 16 µg/mL. For the same compound, the MIC50 [3] was 2 µg/mL (≈ 5.93 µM), the MIC90 [3] was 4 µg/mL (≈ 11.9 µM) and the MIC (MRSE) was 0.25 µg/mL (≈ 0.741 µM). For the same compound, the MIC [4] was 8 µg/mL (≈ 23.7 µM), the MIC (CIP-resistant S. aureus) was 2 µg/mL (≈ 5.93 µM) and the MIC [5] was 8 µg/mL (≈ 23.7 µM). It also gave an MIC [6] of 16 µg/mL (≈ 47.4 µM), an MIC (MRSA) of 4 µg/mL (≈ 11.9 µM) and an MIC [7] of 2 µg/mL (≈ 5.93 µM). The MIC [8] was 0.5 µg/mL (≈ 1.48 µM).
For `C[C@H]1CCc2c(N3CCC(O)(COc4ccc(N5C[C@H](CO)OC5=O)cc4F)CC3)c(F)cc3c(=O)c(C(=O)O)cn1c23` [OBP-4], the MIC (MRSA (13B262)) was 0.5 µg/mL (≈ 0.834 µM), the MIC [1] was 0.031 µg/mL (≈ 0.0517 µM) and the “Cumulative % of strains inhibited at MIC” value ([2]; MIC 0.125 µg/mL) was 38.5%. The “No. of strains inhibited at MIC” value ([2]; MIC 0.125 µg/mL) was 3, the “Cumulative % of strains inhibited at MIC” value ([2]; MIC 0.5 µg/mL) was 100.0% and the “No. of strains inhibited at MIC” value ([2]; MIC 0.5 µg/mL) was 1. The “Cumulative % of strains inhibited at MIC” value ([2]; MIC […]) was 92.3%, the “No. of strains inhibited at MIC” value ([2]; MIC […]) was 7 and the “Cumulative % of strains inhibited at MIC” value ([2]; MIC ≤[…]) was 15.4%. For the same compound, the “No. of strains inhibited at MIC” value ([2]; MIC ≤[…]) was 2, the “MIC Range” value [2] was at most 0.0625 to 0.5 µg/mL and the MIC50 [2] was 0.25 µg/mL (≈ 0.417 µM). For the same compound, the MIC90 [2] was 0.25 µg/mL (≈ 0.417 µM), the “Cumulative % of strains inhibited at MIC” value ([3]; MIC 0.5 µg/mL) was 95.7% and the “No. of strains inhibited at MIC” value ([3]; MIC 0.5 µg/mL) was 37. The “Cumulative % of strains inhibited at MIC” value ([3]; MIC 1 µg/mL) was 97.9%, the “No. of strains inhibited at MIC” value ([3]; MIC 1 µg/mL) was 1 and the “Cumulative % of strains inhibited at MIC” value ([3]; MIC 2 µg/mL) was 100.0%. The “No. of strains inhibited at MIC” value ([3]; MIC 2 µg/mL) was 1, the “No. of strains inhibited at MIC” value ([3]; MIC […]) was 8 and the “fold higher activity than comparator agents” value ([3]; E. faecium clinical isolates) was 16- to 128 fold. For the same compound, the “MIC Range” value [3] was 0.25 to 2 µg/mL, the MIC (MRSE) was at most 0.0625 µg/mL and the MIC [4] was 1 µg/mL (≈ 1.67 µM). For the same compound, the MIC (CIP-resistant S. aureus) was 0.125 µg/mL (≈ 0.208 µM), the MIC [5] was 0.5 µg/mL (≈ 0.834 µM) and the MIC [6] was 0.5 µg/mL (≈ 0.834 µM). For the same compound, the MIC (MRSA) was 0.25 µg/mL (≈ 0.417 µM), the MIC [7] was 0.5 µg/mL (≈ 0.834 µM) and the MIC [8] was 0.25 µg/mL (≈ 0.417 µM). For the same compound, the IC50 (E. coli DNA gyrase) was 1 to 5 µM.
